Reference: patent publication US20090088439A1, “Diazinane Compounds” (priority 2007, published 2009)

How the values were obtained:
[1] = target: T1, GABAB(1A,2) receptor heterodimer (Homo sapiens, UniProt O75899+Q9UBS5); test: GTPγS35 radioligand filtration-binding assay for determination of PAM potency; format: biochemical; conditions: membranes of CHO-K1 cells expressing GABABR1a/GABABR2; concentration required to reduce GABA's EC50 by 50%; PAM at 10, 1, 0.1 and 0.01 μM; read-out: Mean (EC50 derived) PAM EC50
T1 construct: expressed in transfected cells; membrane preparation
Excerpt: The effect of GABA in an automated GTPγS^35 radioligand filtration-binding assay in CHO cells expressing the GABAB(1A,2) receptor heterodimer was studied in the presence or absence of the positive allosteric modulator test compounds. […]
(§1) The GABAB receptor is a G-protein coupled receptor. Binding of a ligand activates the receptor leading to recruitment of G-protein and a substitution of the G-protein bound GDP to GTP. The G-protein becomes active. The G-protein is inactivated by hydrolysis of GTP to GDP. G-proteins are membrane bound and therefore present in membrane preparations.
(§2) In the GTPγS^35 assay, GTP is not present but instead GTPγS^35 where one of the phosphate groups are substituted to a sulphur group which cannot be hydrolysed. Upon activation of the receptor, radiolabelled GTPγS^35 replaces the GDP. The complex cannot be inactivated and the radiolabelled complex is accumulating. At the end of the assay, the reaction mixture is filtered through a membrane-binding filter. Excess GTPγS^35 is removed by washing and the membrane bound S^35, which correlates to the degree of receptor activation, is measured with a β-Liquid Scintillation Counter.
GABABR1a and GABABR2 were cloned from human brain cDNA and subcloned into pCI-Neo (Promega) and pALTER-1 (Promega), respectively.
In order to optimise the Kozak consensus sequence of GABABR2, in situ mutagenesis was performed using the Altered Sites Mutagenesis kit according to manufacturer's instruction (Promega) with the following primer,
5′-[…]-3′. The optimised GABABR2 was then restricted from pALTER-1 with Xho I+Kpn I and subcloned into the mammalian expression vector pcDNA3.1(−)/Zeo (Invitrogen) to produce the final construct, pcDNA3.1(−)/Zeo-GABABR2.
For generation of stable cell lines, CHO-K1 cells were grown in Nut mix F-12 (Ham) media supplemented with 10% FBS, 100 U/ml Penicillin and 100 μg/ml Streptomycin at 37° C. in a humidified CO2-incubator. The cells were detached with 1 mM EDTA in PBS and 1 million cells were seeded in 100 mm petri dishes. After 24 hours the culture media was replaced with OptiMEM and incubated for 1 hour in a CO2-incubator.
For generation of a cell line expressing the GABABR1a/GABABR2 heterodimer, GABABR1a plasmid DNA (4 μg) GABABR2 plasmid DNA (4 μg) and lipofectamine (24 μl) were mixed in 5 ml OptiMEM and incubated for 45 minutes at room temperature. The cells were exposed to the transfection medium for 5 hours, which then was replaced with culture medium. The cells were cultured for an additional 10 days before selection agents (300 μg/ml hygromycin and 400 μg/ml geneticin) were added. Twenty-four days after transfection, single cell sorting into 96-well plates by flow cytometry was performed using a FACS Vantage SE (Becton Dickinson, Palo Alto, Calif.). After expansion, the GABAB receptor functional response was tested by measuring the GABAB receptor dependent release of intracellular calcium in a fluorescence imaging plate reader (FLIPR). The clone with the highest functional response was collected, expanded and then subcloned by single cell sorting. The clonal cell line with the highest peak response in the FLIPR was used in the present study.
GTPγS^35 radioligand filtration-binding assays were performed using an automated workstation at 30° C. for 1 hour in assay buffer (50 mM HEPES, 40 mM NaCl, 1 mM MgCl2×6H2O, 30 μg/mL Saponin, pH 7.4 at RT) containing 0.025 μg/μL of membrane protein (prepared from the cell line described above), 10 μM GDP and 0.55 nCi/μL GTPγS^35 in a final volume of 60 μL. The reaction was started by the addition of serially diluted GABA (final start concentration 1 mM dilution factor 3) in the presence or absence of four concentrations (final conc 10, 1, 0.1 and 0.01 μM) of PAM. The reaction was terminated and membranes collected by addition of ice-cold wash buffer (50 mM Tris-HCl, 5 mM MgCl2×6H2O, 50 mM NaCl, pH 7.4 at 4° C.) followed by rapid filtration under vacuum through a MultiScreen HTS 384 FB filter plate. […]

[2] = target: T2, GABABR1a/GABABR2 heterodimer (Homo sapiens, UniProt O75899+Q9UBS5); test: GTPγS35 radioligand filtration-binding assay for determination of agonist potency; format: biochemical; conditions: membranes of CHO K1 Flp-In cells expressing GABABR1a/GABABR2; compound alone
T2 construct: expressed in transfected cells; membrane preparation
Procedure: The potency and efficacy of the compounds acting as agonists at the GABAB receptor was also determined in a automated GTPγS^35 radioligand filtration-binding assay.
as §1, §2
The human GABABR1a was subcloned into pIRESneo3 (Clontech) using GABABR1a construct as a template (refseqN NM001470). GABABR2 was subcloned into pCDNA5/FRT (Invitrogen) using GABABR2 construct as a template (refseqN NM005458). The Kozak sequence GCCACC was introduced before the start codon in both constructs.
For generation of stable cell lines, CHO K1 Flp-In cells (Invitrogen) were grown in DMEM/F 12 1:1 media supplemented with 10% FBS at 37° C. in a humidified CO2-incubator. The cells were detached with Accutase and 1.5 million cells were seeded into T75 flasks. After 24 h, transfection of the cells were performed with the GABABR2 construct. For generation of cell lines expressing GABABR2, GABABR2 plasmid (1 μg) and pOG44 from Invitrogen (9 μg) were mixed with 30 μl Lipofectamine 2000 in 600 μl OptiMEM for 20 minutes. The cells were exposed to transfection medium for 5 hours and was then replaced with culture medium. After 2 days 0.5 mg/ml Hygromycin were added to culture medium. The cells were cultured for an additional 10 days to establish a stable cell mix expressing GABABR2. For generation of a cell line expressing the GABABR1a/GABABR2 heterodimer, GABABR1a plasmid DNA (8 μg) and Lipofectamine (30 μl) were mixed in 600 μl OptiMEM and incubated for 20 minutes before added to CHO-Flp-In cells expressing GABABR2. After 2 days additional selection agent was added (0.8 mg/ml Geneticin). The cells were cultured for another 10 days to generate a stable mixed population expressing the GABABR1a/GABABR2 heterodimer. The cell line was analyzed by GTPγS^35 assay with GABA as agonist.
GTPγS^35 radioligand filtration-binding assays were performed using an automated workstation at 30° C. for 1 hour in assay buffer (50 mM HEPES, 40 mM NaCl, 1 mM MgCl2×6H2O, 30 μg/mL Saponin, pH 7.4 at RT) containing 0.025 μg/μL of membrane protein (prepared from the cell line described above), 10 μM GDP and 0.55 nCi/μL GTPγS^35 in a final volume of 60 μL. The reaction was started by the addition of compounds (GABA was always included as a positive control), start concentration 100 μM dilution factor 3. The reaction was terminated and membranes collected by addition of ice-cold wash buffer (50 mM Tris-HCl, 5 mM MgCl2×6H2O, 50 mM NaCl, pH 7.4 at 4° C.) followed by rapid filtration under vacuum through a MultiScreen HTS 384 FB filter plate. Repeated washing of the filters with ice-cold wash buffer washed the unbound radioligand away. The filter plates were dried for 1½-2 hours at 50° C., then 8 μL scintillation liquid was added per well followed by incubation at RT for at least 20 minutes before bound radioactivity was determined using a β-Liquid Scintillation Counter (1450 Microbeta Trilux, Wallac, Finland)
100% activation (max) is calculated as the mean value for wells containing 1 mM GABA. […]

T1 sequence (Q9UBS5 15-961 limits assumed): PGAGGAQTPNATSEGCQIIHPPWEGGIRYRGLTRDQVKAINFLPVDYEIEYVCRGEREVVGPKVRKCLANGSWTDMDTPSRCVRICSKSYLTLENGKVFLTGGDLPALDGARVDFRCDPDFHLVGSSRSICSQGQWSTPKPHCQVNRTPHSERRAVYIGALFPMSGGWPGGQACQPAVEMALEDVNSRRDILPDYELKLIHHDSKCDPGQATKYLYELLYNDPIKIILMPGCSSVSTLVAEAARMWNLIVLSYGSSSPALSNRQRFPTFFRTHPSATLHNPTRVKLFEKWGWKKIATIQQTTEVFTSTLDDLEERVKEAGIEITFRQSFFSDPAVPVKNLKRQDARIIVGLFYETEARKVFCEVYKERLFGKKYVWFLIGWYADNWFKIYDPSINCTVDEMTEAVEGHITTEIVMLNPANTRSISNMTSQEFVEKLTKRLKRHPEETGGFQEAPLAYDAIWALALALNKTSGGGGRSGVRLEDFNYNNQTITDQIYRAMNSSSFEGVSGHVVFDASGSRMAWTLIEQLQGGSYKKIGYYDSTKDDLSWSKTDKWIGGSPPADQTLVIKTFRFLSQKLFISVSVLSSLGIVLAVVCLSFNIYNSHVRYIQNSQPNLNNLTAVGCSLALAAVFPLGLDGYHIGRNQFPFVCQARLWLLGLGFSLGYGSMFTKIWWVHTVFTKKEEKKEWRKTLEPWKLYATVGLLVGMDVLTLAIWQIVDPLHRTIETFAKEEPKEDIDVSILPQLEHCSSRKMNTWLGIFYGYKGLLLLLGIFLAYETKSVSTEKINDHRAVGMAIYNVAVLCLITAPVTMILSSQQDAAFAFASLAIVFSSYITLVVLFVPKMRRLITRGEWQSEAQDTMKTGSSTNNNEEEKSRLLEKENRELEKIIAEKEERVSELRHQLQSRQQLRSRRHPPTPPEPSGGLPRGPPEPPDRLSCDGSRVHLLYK
T1 sequence (O75899 42-941): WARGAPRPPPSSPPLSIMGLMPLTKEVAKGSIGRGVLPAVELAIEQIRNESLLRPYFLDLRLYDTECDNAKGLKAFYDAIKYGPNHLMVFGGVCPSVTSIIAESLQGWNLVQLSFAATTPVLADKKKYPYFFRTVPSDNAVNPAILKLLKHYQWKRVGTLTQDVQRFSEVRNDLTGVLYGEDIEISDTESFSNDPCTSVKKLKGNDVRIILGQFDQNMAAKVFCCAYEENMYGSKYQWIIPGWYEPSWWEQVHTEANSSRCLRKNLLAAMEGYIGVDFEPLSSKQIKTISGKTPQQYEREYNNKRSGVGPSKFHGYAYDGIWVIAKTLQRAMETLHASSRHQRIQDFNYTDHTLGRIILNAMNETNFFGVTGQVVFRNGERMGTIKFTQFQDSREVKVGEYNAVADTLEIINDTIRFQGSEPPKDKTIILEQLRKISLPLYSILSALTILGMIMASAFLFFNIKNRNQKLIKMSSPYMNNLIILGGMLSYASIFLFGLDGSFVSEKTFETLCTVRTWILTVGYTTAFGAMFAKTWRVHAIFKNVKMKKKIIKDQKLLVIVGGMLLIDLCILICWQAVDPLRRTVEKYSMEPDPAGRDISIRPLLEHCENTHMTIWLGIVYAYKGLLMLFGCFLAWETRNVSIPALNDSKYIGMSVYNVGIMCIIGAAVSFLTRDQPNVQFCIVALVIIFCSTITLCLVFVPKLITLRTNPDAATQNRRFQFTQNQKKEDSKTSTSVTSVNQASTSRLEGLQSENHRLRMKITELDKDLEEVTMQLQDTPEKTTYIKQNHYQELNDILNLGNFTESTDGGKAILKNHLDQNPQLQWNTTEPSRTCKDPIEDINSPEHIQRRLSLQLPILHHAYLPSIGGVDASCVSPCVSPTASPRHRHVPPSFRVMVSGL
T2 sequence (Q9UBS5 15-961 limits assumed): as the sequence (Q9UBS5 15-961 limits assumed) above
T2 sequence (O75899 42-941): as the sequence (O75899 42-941) above

| Compound | EC50 [1] [nM] | EC50 [2] [nM] |
| --- | --- | --- |
| C[Si](C)(C)CCn1c(=O)n(Cc2ccc(Cl)cc2)c(=O)c2nccnc21 [Example 3, 3-(4-chlorobenzyl)-1-[2-(trimethylsilyl)ethyl]pteridine-2,4(1H,3H)-dione] | 600 | – |
| CCCn1c(=O)n(Cc2ccc(Cl)cc2)c(=O)c2nc3c(nc21)CCC3 [Example 22, 3-(4-chlorobenzyl)-1-propyl-7,8-dihydro-1H-cyclopenta[g]pteridine-2,4(3H,6H)-dione] | – | 3700 |
| COc1ccc(Cn2c(=O)n(Cc3ccc(Cl)cc3)c(=O)c3nccnc32)c(OC)c1 [Example 1, 3-(4-chlorobenzyl)-1-(2,4-dimethoxybenzyl)pteridine-2,4(1H,3H)-dione] | 6000 | – |
| COc1ccc(Cn2c(=O)n(Cc3ccc(Cl)cc3)c(=O)c3nccnc32)cc1 [Example 9, 3-(4-chlorobenzyl)-1-(4-methoxybenzyl)pteridine-2,4(1H,3H)-dione] | 7000 | – |
| O=c1c2nccnc2n(CC2CCCCC2)c(=O)n1Cc1ccc(Cl)cc1 [Example 4, 3-(4-chlorobenzyl)-1-(cyclohexylmethyl)pteridine-2,4(1H,3H)-dione] | 600 | – |
| O=c1c2nc3c(nc2n(CC(O)C(F)(F)F)c(=O)n1Cc1ccc(Cl)cc1)CCCC3 (centres unmarked) [Example 19, 3-(4-chlorobenzyl)-1-(3,3,3-trifluoro-2-hydroxypropyl)-6,7,8,9-tetrahydrobenzo[g]pteridine-2,4(1H,3H)-dione] | – | 1300 |
| CCCn1c(=O)n(Cc2ccc(Cl)cc2)c(=O)c2nc(CC)c(CC)nc21 [Example 13, 3-(4-chlorobenzyl)-6,7-diethyl-1-propylpteridine-2,4(1H,3H)-dione] | – | 800 |
| CCCn1c(=O)n(Cc2ccc(Cl)cc2)c(=O)c2nccnc21 [Example 2, 3-(4-chlorobenzyl)-1-propylpteridine-2,4(1H,3H)-dione] | 4300 | – |
| C=CCn1c(=O)n(Cc2ccc(Cl)cc2)c(=O)c2nc3c(nc21)CCCC3 [Example 14, 1-allyl-3-(4-chlorobenzyl)-6,7,8,9-tetrahydrobenzo[g]pteridine-2,4(1H,3H)-dione] | – | 1600 |
| CCCn1c(=O)n(Cc2ccc(Cl)cc2)c(=O)c2c1nc1c([n+]2[O-])CCCC1 [Example 21, 3-(4-chlorobenzyl)-1-propyl-6,7,8,9-tetrahydrobenzo[g]pteridine-2,4(1H,3H)-dione 5-oxide] | – | 7700 |
| O=c1c2nccnc2n(Cc2ccc(Cl)cc2)c(=O)n1Cc1ccc(Cl)cc1 [Example 8, 1,3-bis(4-chlorobenzyl)pteridine-2,4(1H,3H)-dione] | 2400 | – |
| N#Cc1cccc(Cn2c(=O)n(Cc3ccc(Cl)cc3)c(=O)c3nc4c(nc32)CCCC4)c1 [Example 16, 3-{[3-(4-chlorobenzyl)-2,4-dioxo-3,4,6,7,8,9-hexahydrobenzo[g]pteridin-1(2H)-yl]methyl}benzonitrile] | – | 1000 |

More lines, now with the values ahead:

| EC50 [1] [nM] | EC50 [2] [nM] | Compound |
| --- | --- | --- |
| – | 1600 | O=c1c2nc3c(nc2n(CCn2cccc2)c(=O)n1Cc1ccc(Cl)cc1)CCCC3 [Example 17, 3-(4-chlorobenzyl)-1-[2-(1H-pyrrol-1-yl)ethyl]-6,7,8,9-tetrahydrobenzo[g]pteridine-2,4(1H,3H)-dione] |
| – | 1400 | CCCn1c(=O)n(Cc2ccc(Cl)cc2)c(=O)c2nc3c(nc21)C(C)CC3C (mixture of isomers) [Example 12, 3-(4-chlorobenzyl)-6,8-dimethyl-1-propyl-7,8-dihydro-1H-cyclopenta[g]pteridine-2,4(3H,6H)-dione] |
| 800 | – | O=C(c1ccccc1)c1ccc(Cn2c(=O)n(Cc3ccc(Cl)cc3)c(=O)c3nccnc32)cc1 [Example 10, 1-(4-benzoylbenzyl)-3-(4-chlorobenzyl)pteridine-2,4(1H,3H)-dione] |
| 1300 | – | O=c1c2nccnc2n(CCc2ccccc2)c(=O)n1Cc1ccc(Cl)cc1 [Example 11, 3-(4-chlorobenzyl)-1-(2-phenylethyl)pteridine-2,4(1H,3H)-dione] |
| 5100 | – | O=c1c2nccnc2n(Cc2ccccc2)c(=O)n1Cc1ccc(Cl)cc1 [Example 7, 1-benzyl-3-(4-chlorobenzyl)pteridine-2,4(1H,3H)-dione] |
| – | 2200 | 6-tert-butyl-3-(4-chlorobenzyl)-1-propylpteridine-2,4(1H,3H)-dione and 7-tert-butyl-3-(4-chlorobenzyl)-1-propylpteridine-2,4(1H,3H)-dione [Example 23] |
| – | 500 | CC(C)(C)C(=O)Cn1c(=O)n(Cc2ccc(Cl)cc2)c(=O)c2nc3c(nc21)CCCC3 [Example 18, 3-(4-chlorobenzyl)-1-(3,3-dimethyl-2-oxobutyl)-6,7,8,9-tetrahydrobenzo[g]pteridine-2,4(1H,3H)-dione] |
| 2900 | – | CC(C)(C)C(=O)Cn1c(=O)n(Cc2ccc(Cl)cc2)c(=O)c2nccnc21 [Example 5, 3-(4-chlorobenzyl)-1-(3,3-dimethyl-2-oxobutyl)pteridine-2,4(1H,3H)-dione] |
